Here are results for nine compounds from patent US10703748B2, “Diazanaphthalen-3-yl carboxamides and preparation and use thereof” (Samumed, LLC, priority 2017, dated 2020).

Test [1] deals with Wnt-responsive Sp5-Luc reporter in SW480 colon carcinoma cells. The test is described as follows: Screening assay for Wnt activity (Sp5-Luc reporter gene assay). Conditions: Homo sapiens; for EC50: SW480; for inhibition at 10 µM: SW480, read-out: percent inhibition at 10 μM. For orientation: In a reporter assay the amount or activity of a reporter protein is the signal.
A further test deals with GSK3β kinase (Homo sapiens, UniProt P49841). Put plainly: GSK3β kinase activity (Ser/Thr 09 peptide Z-lyte FRET assay). It is filed as biochemical. The note with it: recombinant kinase, 46 μM ATP, one hour at room temperature; read-out: EC50.
In test [2] the test system is SW480 colon carcinoma cells. Put plainly: Cell viability assay (CellTiter-Glo). Conditions: Homo sapiens; for EC50: SW480, 96 h; for inhibition at 10 µM: SW480, read-out: percent inhibition at 10 μM.
For test [3], the system named is α-smooth muscle actin (aSMA) positive LL29 cells. Put plainly: Inhibition of the fibrotic process: αSMA staining in TGF-β1 treated LL29 fibroblasts from IPF patients. The note with it: Homo sapiens, Fibroblast; for EC50: 96 h; for inhibition at 10 µM: read-out: percentage in parentheses after EC50 >10.
Test [4] deals with Tau phosphorylation at Threonine 212 (pT212Tau). Put plainly: Tau phosphorylation at Threonine 212 (pT212Tau) in Dyrk1a- and MAPT-overexpressing HEK293T cells, sandwich ELISA. The test is classed as cell-based. Conditions: Homo sapiens, HEK-293T, overnight (16-18 hours), read-out: Thr212 EC50. Here is the method: HEK293T cells (transfectable human embryonic kidney cells) were cultured in DMEM medium supplemented with 10% FBS and 1% penicillin/streptomycin.
HEK293T cells were transiently transfected to overexpress Dyrk1a and microtubule-associated protein Tau (MAPT) genes. Specifically, Dyrk1a and MAPT expression vectors were obtained from OriGene (10 μg of each, catalog numbers SC314641 and RC216166, respectively). A MaxiPrep for each vector was ordered and received from GeneWiz, yielding 874.5 μg (resuspended at […]) of the Dyrk1a expression vector, and 898 μg (resuspended at […]) of MAPT.
HEK293T cells were seeded at 1.0×10^7 cells in 10 mL per T-75 flask. […] One T-75 flask was designated as a no-vector negative control for pT212Tau signal.
After 4-6 hours of incubation in transfection reagents, transiently double transfected HEK293T cells were dissociated by treatment with trypsin EDTA and seeded at 1.0×10^5 cells in 100 μL per well in 96-well plates. No-vector negative controls were seeded in separate 96-well plates to avoid the risk of the negative control cells picking up the overexpression during incubation. At the time of seeding, DMSO-resuspended Samumed compounds were dispensed to eight wells as a serial dilution from 10 μM to 4.6 nM final concentration in medium, or at 0.12 μM to 0.05 nM with particularly potent compounds. Cells were exposed to the representative compounds overnight (16-18 hours) in a 37° C. incubator.
96-Well flat-bottom plates were coated with 100 μL per well anti-HT7 capture antibody (ThermoFisher, MN1000) diluted 1:300 in 1×PBS at 4° C. overnight, with shaking at 500 rpm. After overnight capture antibody incubation, coated plates were washed four times with 200 μL per well of 1×PBS-0.05% Tween-20, and blocked for 1 hour with 200 μL per well of 1×PBS with 2% BSA. After 1 hour of blocking, plates were washed four times with 200 μL per well of 1×PBS-0.05% Tween-20, prior to sample loading.
Wells of compound-treated cells were visually checked for cell death before being washed with 200 μL per well of 1×DPBS supplemented with phosphatase inhibitor diluted to 1×. Cells were then lysed with 100 μL 1×RIPA buffer supplemented with phosphatase and protease inhibitors (each diluted to a final 1×). Cells were shaken at 500 rpm, 4° C. for 20 minutes prior to further lysis (via manual scraping) and transfer to 96-well V-bottom collection plates (Corning, 3894). V-bottom plates were centrifuged at 4000 rpm, 4° C., for 15 minutes, and 100 μL of lysate supernatant from each well was directly tested for pT212Tau signal by sandwich ELISA.
Specifically, lysates were directly transferred to the coated and blocked ELISA plates for 2 hours before plates were washed four times with 200 μL per well of 1×PBS-0.05% Tween-20 and probed with 100 μL per well of anti-pT212Tau antibody (ThermoFisher, 44-740G) diluted 1:200 in 1×PBS for 2 hours. Plates were washed four times with 200 μL per well of 1×PBS-0.05% Tween-20 and probed with 100 μL per well of anti-rabbit/HRP conjugate (Cell Signaling Technology, 7074S) diluted 1:600 in 1×PBS for 1 hour. Plates were washed four times with 200 μL per well of 1×PBS-0.05% Tween-20 before 100 μL per well of TMB substrate solution (ThermoFisher, N301) was added. When colour development was observed, 100 μL per well of stop solution (ThermoFisher, N600) was added, and colorimetric detection of pT212Tau signal was read at 450 nm with the Cytation 3 Cell Imaging Multi-Mode Reader (BioTek). The signal was used to plot, draw the curves fitting, and determine the EC50 values in GraphPad Prism for tested representative compounds.
In general terms: ELISA stands for enzyme-linked immunosorbent assay.

The next test deals with IL-6. The test is described as follows: IL-6 inhibition in LPS-stimulated human peripheral blood mononuclear cells (HTRF). Conditions: Homo sapiens, PBMC; for EC50: 22 h; for inhibition at 10 µM: read-out: percentage in parentheses after EC50 >10. A general note: In TR-FRET formats the signal depends on donor and acceptor labels being close together.
In test [5] the test system is Tau phosphorylation at Ser396 (pSer396). Put plainly: Tau phosphorylation at Ser396 (pSer396) in SH-SY5Y cells, ELISA / western blot.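 Also: decrease in pSer396 Tau measured in lysates of treated cells by colorimetric ELISA or chemiluminescent western blot, same pSer396 antibody for both.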 The note with it: Homo sapiens; SH-SY5Y cells, overnight (16-18 h); read-out: pSer396 Tau EC50. The test is classed as cell-based, human.
Protocol: Two days before treatment, cells were seeded onto 96 well plates at 5×10^4 cells/well.
The above synthesized compounds were screened using the cell assay procedure to assess decrease Tau phosphorylation at Ser396 (pSer396) described below.
Cells were lysed with RIPA buffer complemented with phosphatase and protease inhibitors then lysates were spun down at 12,000 g for 10 min to remove any cellular debris.
In test [6] the test system is secreted cytokines TNFα, IL-6 and KC-GRO. The test is described as follows: Secreted cytokines in Lipopolysaccharide-stimulated BV-2 cells (Table 9 does not say which cytokine). Conditions: Mus musculus, BV-2, 5 h; read-out: EC50. The test is classed as cell-based, mouse.
A further test deals with DYRK1A kinase (Homo sapiens, UniProt Q13627). Put plainly: DYRK1A kinase activity (Ser/Thr 18 peptide Z-lyte FRET assay).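 Also: kinase activity read as coumarin/fluorescein emission ratio after development step, with unphosphorylated and phosphorylated peptide forms setting 0% and 100% controls, values from dose-response curves.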 It is filed as biochemical. Conditions: recombinant DYRK1A, 30 μM ATP, one hour at room temperature.

By EC50 is commonly meant the concentration giving half of the maximal effect.

GSK3β kinase, sequence (P49841 whole entry): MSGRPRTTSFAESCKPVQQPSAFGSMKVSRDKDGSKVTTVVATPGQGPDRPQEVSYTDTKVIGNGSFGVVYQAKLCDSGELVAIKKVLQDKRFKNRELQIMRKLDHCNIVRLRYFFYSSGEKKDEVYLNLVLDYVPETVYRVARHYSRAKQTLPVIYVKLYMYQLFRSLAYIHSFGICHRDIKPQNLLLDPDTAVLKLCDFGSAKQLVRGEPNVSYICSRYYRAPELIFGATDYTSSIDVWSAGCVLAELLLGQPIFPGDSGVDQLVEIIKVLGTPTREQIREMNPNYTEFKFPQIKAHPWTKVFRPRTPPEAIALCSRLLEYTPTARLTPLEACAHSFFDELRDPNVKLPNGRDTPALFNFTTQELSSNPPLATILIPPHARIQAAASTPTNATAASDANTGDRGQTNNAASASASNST
Protocol for DYRK1A kinase: Representative compounds were screened using the assay procedure for DYRK1A kinase activity as described below.
Each compound was dissolved in DMSO as a 10 mM stock and used to prepare compound source plates.
This is a non-radioactive assay using fluorescence resonance energy transfer (FRET) between coumarin and fluorescein to detect kinase activity which is represented as a ratio of coumarin emission/fluorescein emission.
The mixture was allowed to incubate with the representative compounds for one hour at room temperature. All reactions were performed in duplicate. Unphosphorylated (“0% Control”) and phosphorylated (“100% control”) forms of Ser/Thr 18 served as control reactions. Additionally, an 11-point dose-response curve of Staurosporine (1 uM top) was run to serve as a positive compound control.
After incubation, Development Reagent A was diluted in Development Buffer then added to the reaction and allowed to further incubate for one hour at room temperature.
Dose-response curves were generated and inhibitory concentration (IC50) values were calculated using non-linear regression curve fit in the Dotmatics' Studies Software (Bishops Stortford, UK).

Regarding `CN1CCN(c2cccc(C(=O)Nc3cc4cc(-c5cnn(C)c5)ccc4nn3)c2)CC1` [Compound 1953, N-(6-(1-Methyl-1H-pyrazol-4-yl)cinnolin-3-yl)-3-(4-methylpiperazin-1-yl) benzamide], the concentration giving a half-maximal response (EC50) in test [1] is > 10 µM; on GSK3β kinase, 2.62 µM; in test [2] it was > 10 µM; in test [3], > 10 µM; in [4], > 10 µM; with IL-6, > 10 µM. The EC50 in test [5] was > 10 µM; in test [6] it was 2.9 µM; at DYRK1A kinase, 0.317 µM. Besides, the inhibition at 10 µM is 9.7% in [1], 7.8% in test [2], 55.5% in [3] and 12.8% in the test with IL-6.

With `CN1CCC(Oc2ccc(C(=O)Nc3cc4cc(-c5cnn(C)c5)cnc4cn3)cc2)CC1` [Compound 2865, N-(3-(1-Methyl-1H-pyrazol-4-yl)-1,7-naphthyridin-6-yl)-4-((1-methylpiperidin-4-yl)oxy)benzamide], the concentration for a half-maximal effect (EC50) in test [1] is 3.02 µM; at GSK3β kinase, > 10 µM; in test [2], 4.38 µM; in [3] it was 5.12 µM; in test [4] it was 0.122 µM; with IL-6, 9.61 µM. In addition, the EC50 in test [5] is > 10 µM; in test [6], 0.16 µM; at DYRK1A kinase it was 0.041 µM.

Consider `Cn1cc(-c2cc3cc(NC(=O)c4ccnc(N5CCNCC5)c4)ncc3cn2)cn1` [Compound 3773, N-(6-(1-Methyl-1H-pyrazol-4-yl)-2,7-naphthyridin-3-yl)-2-(piperazin-1-yl) isonicotinamide], for which the concentration giving a half-maximal response (EC50) in [1] is 2.83 µM; at GSK3β kinase, 0.852 µM; in test [2], 5.64 µM; in test [3], 3.32 µM; in test [4] it was 0.268 µM; in the test with IL-6 it was > 10 µM. Further, the figures for the EC50 (in test [5]; in test [6]; at DYRK1A kinase) were > 10 µM, 0.305 µM and 0.016 µM, respectively. For the same compound, the inhibition at 10 µM with IL-6 came to 1.1%.

As to `CN1CCN(c2cc(C(=O)Nc3cc4cc(-c5cn(C)nn5)cnc4cn3)ccn2)CC1` [Compound 3098, N-(3-(1-Methyl-1H-1,2,3-triazol-4-yl)-1,7-naphthyridin-6-yl)-2-(4-methylpiperazin-1-yl)isonicotinamide], the EC50 in test [1] is > 10 µM; on GSK3β kinase it was > 10 µM; in test [2], > 10 µM; in [3], > 10 µM; in [4], 2 µM; in the test with IL-6 it was > 10 µM. The 50% effective concentration (EC50) in test [5] was > 10 µM; on DYRK1A kinase, 0.096 µM. In addition, the inhibition at 10 µM in test [1] was found to be 14.9%; in test [2] it was 14.4%; in test [3], 8.3%; with IL-6, 4.7%.

As for `Cn1cc(-c2cc3cc(NC(=O)C4CCN(Cc5ncccn5)CC4)ncc3cn2)cn1` [Compound 3727, N-(6-(1-Methyl-1H-pyrazol-4-yl)-2,7-naphthyridin-3-yl)-1-(pyrimidin-2-ylmethyl)piperidine-4-carboxamide], the EC50 in test [1] was 0.426 µM; at GSK3β kinase, 0.018 µM; in [2] it was 6.66 µM; in [3], 0.149 µM; in test [4], 0.015 µM; with IL-6 it was > 10 µM. Besides, the EC50 in test [5] was 0.398 µM; in test [6] it was > 10 µM; on DYRK1A kinase, 0.004 µM. In addition, in the test with IL-6, the inhibition at 10 µM came out at 6.2%.

`Cn1cc(-c2cnc3cnc(NC(=O)c4ccnc(N5CCNCC5)c4)cc3c2)cn1` [Compound 2866, N-(3-(1-Methyl-1H-pyrazol-4-yl)-1,7-naphthyridin-6-yl)-2-(piperazin-1-yl) isonicotinamide]: the EC50 in test [1] was 2.2 µM; on GSK3β kinase, > 10 µM; in test [2], 2.48 µM; in test [3], > 10 µM; in test [4], 1.6 µM; in the test on IL-6, > 10 µM. Moreover, the EC50 in test [5] is > 10 µM; on DYRK1A kinase, 0.041 µM. In addition, the results for the inhibition at 10 µM (in [3]; with IL-6) were 47.4% and 0%, respectively.

Take `O=C(Nc1cc2cc(-c3cncs3)ncc2cn1)C1CCN(C2COC2)CC1` [Compound 4244, 1-(Oxetan-3-yl)-N-(6-(thiazol-5-yl)-2,7-naphthyridin-3-yl)piperidine-4-carboxamide]: the EC50 in [1] is 0.863 µM; on GSK3β kinase, 0.03 µM; in test [2], > 10 µM; in test [3] it was > 10 µM; in test [4], 0.157 µM; in the test with IL-6, > 10 µM. The EC50 in [5] is 0.284 µM; in test [6], > 10 µM; at DYRK1A kinase, 0.004 µM. Besides, the inhibition at 10 µM in [2] stood at 19.9%; in test [3] it was 4.9%; with IL-6, 6.9%.

For `C[C@H]1CCCN1CC(=O)Nc1cc2nc(-c3cnn(C)c3)ccc2cn1` [Compound 47, (S)—N-(2-(1-methyl-1H-pyrazol-4-yl)-1,6-naphthyridin-7-yl)-2-(2-methylpyrrolidin-1-yl)acetamide], the concentration giving a half-maximal response (EC50) in [1] was 5.21 µM; at GSK3β kinase it was 0.2 µM; in [2] it was > 10 µM; in test [3] it was 7.2 µM; in test [4], 0.668 µM; in the test with IL-6 it was > 10 µM. The 50% effective concentration (EC50) in test [5] was > 10 µM; in [6] it was 0.26 µM; on DYRK1A kinase it was 0.036 µM. The inhibition at 10 µM in test [2] worked out at 35.2%; with IL-6, 0%.

`Cn1cc(-c2cnc3cnc(NC(=O)c4ccc(OC5CCNCC5)cc4)cc3c2)cn1` [Compound 2864, N-(3-(1-Methyl-1H-pyrazol-4-yl)-1,7-naphthyridin-6-yl)-4-(piperidin-4-yloxy)benzamide]: the EC50 in test [1] was > 10 µM; on GSK3β kinase it was > 10 µM; in test [2] it was 4.06 µM; in test [3] it was > 10 µM; in [4], 0.31 µM; in the test with IL-6 it was > 10 µM. Moreover, the half-maximal effective concentration (EC50) in [5] was > 10 µM; at DYRK1A kinase it was 0.039 µM. In addition, the inhibition at 10 µM in test [1] was determined as 47.3%; in [3] it was 7.3%; in the test on IL-6, 10%.
